These results are taken from patent US20250161453A1, “LIGHT-ACTIVATABLE, SUSTAINED-EXPOSURE ETHANOL INJECTION” (University of Maryland, College Park, priority 2022, published 2025).

A short description of series [1]: Singlet oxygen production (Singlet Oxygen Sensor Green) in phantom punch biopsies. Particulars: 20 μM. As to the method:
For the tumor-mimicking mechanical phantom, 5 mm-deep portions of the phantom were removed via a biopsy tool with a diameter of 6.4 mm and placed into a 96-well, clear flat-bottom microplate. Singlet oxygen production was determined using Singlet Oxygen Sensor Green (SOSG) and a microplate reader before irradiation. The SOSG fluorescence was measured with excitation/emission wavelengths of 504/525 nm. The samples were then irradiated with a 690 nm continuous-wave laser at various radiant exposures, and singlet oxygen production was measured using SOSG and the microplate reader after irradiation. The difference between the obtained SOSG fluorescence values between pre- and post-irradiance samples constituted the relative singlet oxygen production of that particular punch biopsy sample.
Table 4 details a strategy for measuring the singlet oxygen production of a sample (e.g., phantom specimen from a punch biopsy). […] 0 μM (EC-Ethanol only), phantom only, and BPD only (dissolved in DMSO) groups were included as negative controls, while the Rose Bengal group (type II photosensitizer capable of generating singlet oxygen via 525 nm light absorption) was included as a positive control. This strategy can be applied to estimate the relative production of singlet oxygen of photosensitizers in other liquid needle injections.
Upon red light (690 nm) activation of BPD-EC-EtOH, the fluorescence signal generated from BPD can be used for imaging of the depot, as shown in FIG. 6E.

Series [2] can be described thus: Stability of BPD stock solution. The note with it: 5 mg BPD powder in 1 mL dimethyl sulfoxide, wrapped in aluminum foil. Type of series: physicochemical. As to the method: To prepare the BPD stock solution, 5 mg of the BPD powder was dissolved with 1 mL of dimethyl sulfoxide in a 2 mL cryovial container. The molarity of the sample was confirmed with a microplate reader using the established molar extinction coefficient of BPD in dimethyl sulfoxide (DMSO; ˜34,895 M^−1 cm^−1 at 687 nm). The container was wrapped in aluminum foil and stored in a −20° C. freezer.

Regarding `O=C([O-])c1c(Cl)c(Cl)c(Cl)c(Cl)c1-c1c2cc(I)c(=O)c(I)c-2oc2c(I)c([O-])c(I)cc12.[Na+].[Na+]` [Rose Bengal], in series [1] (SOSG fluorescence 504/525 nm), the “Post-irradiation RFU” value was found to be 64703 RFU and the “Pre-irradiation RFU” value amounted to 18345 RFU. Further, the “Relative singlet oxygen production (SOSG fluorescence difference)” value in series [1] (difference post- minus pre-irradiation) came out at 46358 RFU.
For the compound benzoporphyrin derivative [BPD], in series [2], the “stability of reconstituted stock solution (in words)” value was “generally stable at −20 °C for several months”.
